Measured values reported in ChEMBL document CHEMBL3046418, “Synthesis and Herbicidal Activity of Sulfonylurea Compounds with Imidazo [1, 2-a] pyridine Moiety” (2001).

What was measured:
Assay type in all cases: functional
[1] = test system: Stellaria media; assay: Herbicidal activity against Stellaria media at 125 g/ha after 3 weeks by post-emergence greenhouse test
[2] = test system: Mutarda arvensis; assay: Herbicidal activity against Sinapis arvensis at 125 g/ha after 3 weeks by post-emergence greenhouse test
[3] = test system: Matricaria chamomilla; assay: Herbicidal activity against Matricaria chamomilla at 125 g/ha after 3 weeks by post-emergence greenhouse test
[4] = test system: Bromus tectorum; assay: Herbicidal activity against Bromus tectorum at 125 g/ha after 3 weeks by post-emergence greenhouse test
[5] = test system: Alopecurus myosuroides; assay: Herbicidal activity against Alopecurus myosuroides at 125 g/ha after 3 weeks by post-emergence greenhouse test
[6] = test system: Avena fatua; assay: Herbicidal activity against Avena fatua at 125 g/ha after 3 weeks by post-emergence greenhouse test
[7] = test system: Triticum aestivum; assay: Phytotoxic activity against Triticum aestivum (wheat) at 125 g/ha after 3 weeks by post-emergence greenhouse test
[8] = test system: Stellaria media; assay: Herbicidal activity against Stellaria media at 250 g/ha after 3 weeks by post-emergence greenhouse test
[9] = test system: Mutarda arvensis; assay: Herbicidal activity against Sinapis arvensis at 250 g/ha after 3 weeks by post-emergence greenhouse test
[10] = test system: Matricaria chamomilla; assay: Herbicidal activity against Matricaria chamomilla at 250 g/ha after 3 weeks by post-emergence greenhouse test
[11] = test system: Bromus tectorum; assay: Herbicidal activity against Bromus tectorum at 250 g/ha after 3 weeks by post-emergence greenhouse test
[12] = test system: Alopecurus myosuroides; assay: Herbicidal activity against Alopecurus myosuroides at 250 g/ha after 3 weeks by post-emergence greenhouse test
[13] = test system: Avena fatua; assay: Herbicidal activity against Avena fatua at 250 g/ha after 3 weeks by post-emergence greenhouse test
[14] = test system: Triticum aestivum; assay: Phytotoxic activity against Triticum aestivum (wheat) at 250 g/ha after 3 weeks by post-emergence greenhouse test
[15] = test system: Stellaria media; assay: Herbicidal activity against Stellaria media at 500 g/ha after 3 weeks by post-emergence greenhouse test
[16] = test system: Mutarda arvensis; assay: Herbicidal activity against Sinapis arvensis at 500 g/ha after 3 weeks by post-emergence greenhouse test
[17] = test system: Bromus tectorum; assay: Herbicidal activity against Bromus tectorum at 500 g/ha after 3 weeks by post-emergence greenhouse test
[18] = test system: Matricaria chamomilla; assay: Herbicidal activity against Matricaria chamomilla at 500 g/ha after 3 weeks by post-emergence greenhouse test
[19] = test system: Alopecurus myosuroides; assay: Herbicidal activity against Alopecurus myosuroides at 500 g/ha after 3 weeks by post-emergence greenhouse test
[20] = test system: Avena fatua; assay: Herbicidal activity against Avena fatua at 500 g/ha after 3 weeks by post-emergence greenhouse test
[21] = test system: Triticum aestivum; assay: Phytotoxic activity against Triticum aestivum (wheat) at 500 g/ha after 3 weeks by post-emergence greenhouse test
[22] = test system: Triticum aestivum; assay: Phytotoxic activity against Triticum aestivum (wheat) at 100 g/ha after 3 weeks by post-emergence greenhouse test
[23] = test system: Chenopodium album; assay: Herbicidal activity against Chenopodium album at 400 g/ha after 3 weeks by post-emergence greenhouse test
[24] = test system: Stellaria media; assay: Herbicidal activity against Stellaria media at 400 g/ha after 3 weeks by post-emergence greenhouse test
[25] = test system: Mutarda arvensis; assay: Herbicidal activity against Sinapis arvensis at 400 g/ha after 3 weeks by post-emergence greenhouse test
[26] = test system: Matricaria chamomilla; assay: Herbicidal activity against Matricaria chamomilla at 400 g/ha after 3 weeks by post-emergence greenhouse test
[27] = test system: Bromus tectorum; assay: Herbicidal activity against Bromus tectorum at 400 g/ha after 3 weeks by post-emergence greenhouse test
[28] = test system: Alopecurus myosuroides; assay: Herbicidal activity against Alopecurus myosuroides at 400 g/ha after 3 weeks by post-emergence greenhouse test
[29] = test system: Chenopodium album; assay: Herbicidal activity against Chenopodium album at 25 g/ha after 3 weeks by post-emergence greenhouse test
[30] = test system: Stellaria media; assay: Herbicidal activity against Stellaria media at 25 g/ha after 3 weeks by post-emergence greenhouse test
[31] = test system: Mutarda arvensis; assay: Herbicidal activity against Sinapis arvensis at 25 g/ha after 3 weeks by post-emergence greenhouse test
[32] = test system: Matricaria chamomilla; assay: Herbicidal activity against Matricaria chamomilla at 25 g/ha after 3 weeks by post-emergence greenhouse test
[33] = test system: Bromus tectorum; assay: Herbicidal activity against Bromus tectorum at 25 g/ha after 3 weeks by post-emergence greenhouse test
[34] = test system: Alopecurus myosuroides; assay: Herbicidal activity against Alopecurus myosuroides at 25 g/ha after 3 weeks by post-emergence greenhouse test
[35] = test system: Triticum aestivum; assay: Phytotoxic activity against Triticum aestivum (wheat) at 25 g/ha after 3 weeks by post-emergence greenhouse test
[36] = test system: Avena fatua; assay: Herbicidal activity against Avena fatua at 25 g/ha after 3 weeks by post-emergence greenhouse test
[37] = test system: Chenopodium album; assay: Herbicidal activity against Chenopodium album at 100 g/ha after 3 weeks by post-emergence greenhouse test
[38] = test system: Stellaria media; assay: Herbicidal activity against Stellaria media at 100 g/ha after 3 weeks by post-emergence greenhouse test
[39] = test system: Mutarda arvensis; assay: Herbicidal activity against Sinapis arvensis at 100 g/ha after 3 weeks by post-emergence greenhouse test
[40] = test system: Matricaria chamomilla; assay: Herbicidal activity against Matricaria chamomilla at 100 g/ha after 3 weeks by post-emergence greenhouse test
[41] = test system: Bromus tectorum; assay: Herbicidal activity against Bromus tectorum at 100 g/ha after 3 weeks by post-emergence greenhouse test
[42] = test system: Alopecurus myosuroides; assay: Herbicidal activity against Alopecurus myosuroides at 100 g/ha after 3 weeks by post-emergence greenhouse test
[43] = test system: Avena fatua; assay: Herbicidal activity against Avena fatua at 100 g/ha after 3 weeks by post-emergence greenhouse test
[44] = test system: Avena fatua; assay: Herbicidal activity against Avena fatua at 400 g/ha after 3 weeks by post-emergence greenhouse test
[45] = test system: Triticum aestivum; assay: Phytotoxic activity against Triticum aestivum (wheat) at 400 g/ha after 3 weeks by post-emergence greenhouse test
[46] = test system: Chenopodium album; assay: Herbicidal activity against Chenopodium album after 3 weeks by post-emergence greenhouse test; parameters: concentration or dose not given beside the values
[47] = test system: Stellaria media; assay: Herbicidal activity against Stellaria media after 3 weeks by post-emergence greenhouse test; parameters: concentration or dose not given beside the values
[48] = test system: Mutarda arvensis; assay: Herbicidal activity against Sinapis arvensis after 3 weeks by post-emergence greenhouse test; parameters: concentration or dose not given beside the values
[49] = test system: Matricaria chamomilla; assay: Herbicidal activity against Matricaria chamomilla after 3 weeks by post-emergence greenhouse test; parameters: concentration or dose not given beside the values
[50] = test system: Bromus tectorum; assay: Herbicidal activity against Bromus tectorum after 3 weeks by post-emergence greenhouse test; parameters: concentration or dose not given beside the values
[51] = test system: Avena fatua; assay: Herbicidal activity against Avena fatua after 3 weeks by post-emergence greenhouse test; parameters: concentration or dose not given beside the values
[52] = test system: Alopecurus myosuroides; assay: Herbicidal activity against Alopecurus myosuroides after 3 weeks by post-emergence greenhouse test; parameters: concentration or dose not given beside the values
[53] = test system: Triticum aestivum; assay: Phytotoxic activity against Triticum aestivum (wheat) after 3 weeks by post-emergence greenhouse test; parameters: concentration or dose not given beside the values
[54] = test system: Chenopodium album; assay: Herbicidal activity against Chenopodium album after 4 weeks by pre-emergence greenhouse test; parameters: concentration or dose not given beside the values
[55] = test system: Stellaria media; assay: Herbicidal activity against Stellaria media after 4 weeks by pre-emergence greenhouse test; parameters: concentration or dose not given beside the values
[56] = test system: Matricaria chamomilla; assay: Herbicidal activity against Matricaria chamomilla after 4 weeks by pre-emergence greenhouse test; parameters: concentration or dose not given beside the values
[57] = test system: Mutarda arvensis; assay: Herbicidal activity against Sinapis arvensis after 4 weeks by pre-emergence greenhouse test; parameters: concentration or dose not given beside the values
[58] = test system: Bromus tectorum; assay: Herbicidal activity against Bromus tectorum after 4 weeks by pre-emergence greenhouse test; parameters: concentration or dose not given beside the values
[59] = test system: Alopecurus myosuroides; assay: Herbicidal activity against Alopecurus myosuroides after 4 weeks by pre-emergence greenhouse test; parameters: concentration or dose not given beside the values
[60] = test system: Avena fatua; assay: Herbicidal activity against Avena fatua after 4 weeks by pre-emergence greenhouse test; parameters: concentration or dose not given beside the values
[61] = test system: Triticum aestivum; assay: Phytotoxic activity against Triticum aestivum (wheat) after 4 weeks by pre-emergence greenhouse test

Compound: CSc1nnc(C(C)(C)C)c(=O)n1N [METRIBUZIN]
- Activity [1]: 88%
- Activity [2]: 100%
- Activity [3]: 51%
- Activity [4]: 1%
- Activity [5]: 51%
- Activity [6]: 0%
- Phytotoxicity [7]: 0%
- Activity [8]: 100%
- Activity [9]: 100%
- Activity [10]: 100%
- Activity [11]: 1%
- Activity [12]: 51%
- Activity [13]: 1%
- Phytotoxicity [14]: 1%
- Activity [15]: 100%
- Activity [16]: 100%
- Activity [17]: 88%
- Activity [18]: 100%
- Activity [19]: 100%
- Activity [20]: 76%
- Phytotoxicity [21]: 1%

Compound: CCS(=O)(=O)c1nc2ccccn2c1S(=O)(=O)NC(=O)Nc1nc(OC)cc(OC)n1 [SULFOSULFURON]
- Phytotoxicity [22]: 0%
- Activity [23]: 51%
- Activity [24]: 88%
- Activity [25]: 88%
- Activity [26]: 88%
- Activity [27]: 88%
- Activity [28]: 88%
- Activity [29]: 1%
- Activity [30]: 88%
- Activity [31]: 88%
- Activity [32]: 88%
- Activity [33]: 88%
- Activity [34]: 88%
- Phytotoxicity [35]: 0%
- Activity [36]: 88%
- Activity [37]: 1%
- Activity [38]: 88%
- Activity [39]: 88%
- Activity [40]: 88%
- Activity [41]: 88%
- Activity [42]: 88%
- Activity [43]: 88%
- Activity [44]: 0%
- Phytotoxicity [45]: 0%
- Activity [46]: 51%
- Activity [47]: 88%
- Activity [48]: 88%
- Activity [49]: 88%
- Activity [50]: 88%
- Activity [51]: 88%
- Activity [52]: 88%
- Activity [53]: 0%
- Activity [54]: 88%
- Activity [55]: 88%
- Activity [56]: 88%
- Activity [57]: 88%
- Activity [58]: 88%
- Activity [59]: 88%
- Activity [60]: 51%
- Phytotoxicity [61]: 0%
